{"source": "patent US3941882A", "about": "“Rodenticidal imidazo-pyridines” (priority 1974, dated 1976)", "key": {"[1]": {"tested_on": "whole blood clotting time", "test": "Prolongation of whole blood clotting time in female rats (Table II)", "format": "in vivo, Rattus norvegicus, Sprague-Dawley strain", "settings": "0.06 % in diet", "procedure": "1-Hydroxy-6-chloro-2-pentafluoroethyl-1H-imidazo(4,5-b)-pyridine was evaluated for prolongation of clotting time. The experiment was conducted in female rats (Rattus norvegicus, Sprague-Dawley strain) using a standard laboratory diet. A group of four control rats was fed the unmodified diet and another group of four rats was fed a treated diet, the standard laboratory diet modified by the incorporation therein of 0.06 percent of the 1-hydroxy-6-chloro-2-pentafluoroethyl-1H-imidazo(4,5-b)pyridine.\nOn the sixth day of feeding, a blood sample was taken from each rat and was analyzed for whole blood clotting time. The analysis was carried out on a BBL Fibrometer Precision Coagulation Timer, produced by BBL Fibrometer, a Division of Becton, Dickinson and Co., Canada, Ltd.; at Mississauga, Ontario. Two analyses were made of each sample."}, "PTC (IX)": {"tested_on": "PTC (IX)", "test": "Coagulation factor concentration in dogs, factor IX (Table VI)", "format": "in vivo, dogs (beagles)", "settings": "40 mg./kg. oral x 3 days; per dog", "procedure": "(§1) Each of 1-methoxy-6-chloro-2-trifluoromethyl-1H-imidazo-(4,5-b)pyridine and 1-hydroxy-6-chloro-2-trifluoromethyl-1H-imidazo(4,5-b)pyridine was evaluated in coagulation studies in dogs (beagles weighing about 10 kilograms each). Two dogs were employed with each compound, one female and one male.\n(§2) In the second part of the evaluation, a sample was taken from each of the same four dogs prior to any treatment (at the same time as the initial sample for the first part of the evaluation), and the samples were pooled and evaluated for the concentration of individual clotting factors, to serve as a control. Following the treatment described above, a sample was again taken from each dog and individually analyzed in the same manner. The control figure was considered as 100 percent and the scores for the treated dogs were reported as percent of the control figure. Analyses were by the following methods:\nIx w. f. stapp, 10 Scand. J. Clin. Lab. Inves. 169 l (1958)."}, "Prothrombin (II)": {"tested_on": "Prothrombin (II)", "test": "Coagulation factor concentration in dogs, factor II (Table VI)", "format": "in vivo, dogs (beagles)", "settings": "40 mg./kg. oral x 3 days; per dog", "procedure": "as §1, §2\nIi f. koller et al., 6 Acta Haem. 1 (1951)."}, "AHG (VIII)": {"tested_on": "AHG (VIII)", "test": "Coagulation factor concentration in dogs, factor VIII (Table VI)", "format": "in vivo, dogs (beagles)", "settings": "40 mg./kg. oral x 3 days; per dog", "procedure": "as §1, §2\nViii r. d. langdell et al., 41 J. Lab. Clin. Med. 637 (1953)."}, "Hageman Factor (XII)": {"tested_on": "Hageman Factor (XII)", "test": "Coagulation factor concentration in dogs, factor XII (Table VI)", "format": "in vivo, dogs (beagles)", "settings": "40 mg./kg. oral x 3 days; per dog", "procedure": "as §1, §2\nXii o. d. ratnoff in Thrombosis and Bleading Disorders, ed. by N. U. Bang et al. (G. Thieme, and Academic Press, N.Y., 1971), pages 214-221."}, "[2]": {"tested_on": "coagulation (prothrombin time, activated partial thromboplastin, thrombin clotting time, fibrinogen)", "test": "Coagulation studies in dogs: clotting times and fibrinogen (Table V)", "format": "in vivo, dogs (beagles)", "settings": "for Activated Partial Thromboplastin Time / Fibrinogen Levels / Prothrombin Time / Thrombin Clotting Time: 40 mg./kg. oral on each of 3 successive days, fourth day, per dog", "procedure": "as §1\nIn the first part of the evaluation, a blood sample was taken from each dog prior to any treatment with the respective compound. The sample was citrated and centrifuged for 10-15 minutes to segregate the plasma, which was separated and quick frozen. The dogs were then treated: each dog received 40 mg./kg. of the respective compound on each of 3 successive days; administration was by the oral route. On the fourth day, blood samples were again taken and processed as described above. Throughout the test, the dogs were provided with adequate food and water and otherwise maintained under good conditions. The samples were subsequently thawed and analyzed for prothrombin time activated partial thromboplastin, thrombin clotting time, and fibrinogen levels. The first three analyses were conducted on a \"Bioquest Fibrometer\", produced by Baltimore Biological Division of Becton and Dickinson at Cockeysville, Maryland 21030, Fibrinogen levels were determined by the method of H. O. Bang, 9 Scand. J. Clin. Lab. Inves. 205 (1957)."}, "PTA (XI)": {"tested_on": "PTA (XI)", "test": "Coagulation factor concentration in dogs, factor XI (Table VI)", "format": "in vivo, dogs (beagles)", "settings": "40 mg./kg. oral x 3 days; per dog", "procedure": "as §1, §2\nXi s. i. rapaport, 57 J. Lab. Clin. Med. 771 (1961)."}, "Proconvertin (VII)": {"tested_on": "Proconvertin (VII)", "test": "Coagulation factor concentration in dogs, factor VII (Table VI)", "format": "in vivo, dogs (beagles)", "settings": "40 mg./kg. oral x 3 days; per dog", "procedure": "as §1, §2\nVii f. bachman et al., 1 Thrombosis Diathes. Haemorrh. 169 (1957)"}, "Ac Globulin (V)": {"tested_on": "Ac Globulin (V)", "test": "Coagulation factor concentration in dogs, factor V (Table VI)", "format": "in vivo, dogs (beagles)", "settings": "40 mg./kg. oral x 3 days; per dog", "procedure": "as §1\n(§3) In the second part of the evaluation, a sample was taken from each of the same four dogs prior to any treatment (at the same time as the initial sample for the first part of the evaluation), and the samples were pooled and evaluated for the concentration of individual clotting factors, to serve as a control. Following the treatment described above, a sample was again taken from each dog and individually analyzed in the same manner. The control figure was considered as 100 percent and the scores for the treated dogs were reported as percent of the control figure."}, "Stuart Factor (X)": {"tested_on": "Stuart Factor (X)", "test": "Coagulation factor concentration in dogs, factor X (Table VI)", "format": "in vivo, dogs (beagles)", "settings": "40 mg./kg. oral x 3 days; per dog", "procedure": "as §1, §3"}, "[3]": {"tested_on": "rat population (Rattus norwegius)", "test": "Field trial against a rat population", "format": "in vivo", "settings": "100 ppm in feed", "procedure": "A field trial was conducted to evaluate the efficacy of 1-methoxy-5,6-dichloro-2-heptafluoro-n-propyl-1H-imidazo(4,5-b)-pyridine. The trial was conducted in an area of waste ground covered by grass and brush and recently cut off, by construction activity, from a nearby abandoned stockyard. The trial area indicated the presence of a rat population; this was confirmed by supplying to the area a conventional pelleted hog feed. It was consumed steadily at the rate of 8 lbs./day, corresponding to a population of about 145 rats consuming an average of 25 g. of feed/day. After the conventional feed had been supplied for three weeks, the trial period began. The rat species was believed to be Rattus norwegius, and this was later confirmed upon recovery of the dead animals.\nDuring the trial period, the conventional feed was replaced by an adequate supply of a modified feed, which was identical to the conventional feed except that it contained 100 ppm (0.01 percent) of 1-methoxy-5,6-dichloro-2-heptafluoro-n-propyl-1H-imidazo(4,5-b)pyridine.\nFood consumption was estimated visually and was as follows, counting the initiation of the trial period as the first day: […]"}, "prothrombin time": {"tested_on": "prothrombin time", "test": "Prothrombin time in male rats (Tables III and IV)", "format": "in vivo, rats (Harlan albino strain)", "settings": "five days, group of 5 rats", "procedure": "Representative compounds were evaluated for prothrombin time in standard laboratory male rats (Harlan albino strain) of weanling age. A standard laboratory animal diet was fed to one group of 5 rats to serve as a control; other groups of 5 rats received modified diets, each diet being the standard laboratory animal diet modified by the incorporation therein of 0.08 percent of the respective compound. Feeding was continued for five days, at which time a blood sample was taken from each rat and analyzed for prothrombin time. The analytical method was that of A. J. Quick, \"The Determination of Prothrombin,\" 190 Am. J. Med. Sci. 501 (1935): and it was performed on the \"Electra 600\", a machine available from the Medical Laboratory Automation, Inc. The results are reported in Table III.\nAdditional evaluations of the effect of representative compounds of prothrombin time were conducted. The procedures were the same as those reported in Examples 30-33 except that the concentration of the respective compound was 0.02 percent."}}, "note": "“And” between values parts separate entries of the source, which are not always exact repeats. Equal values may be shown once. “Also recorded” adds a separate entry of the source."}
{"smiles": "On1c(C(F)(F)C(F)(F)F)nc2ncc(Cl)cc21", "note": "[1-hydroxy-6-chloro-2-pentafluoroethyl-1H-imidazo(4,5-b)pyridine]", "values": [{"measurement": "Death during clotting time study", "setting": "[1]; per animal", "value": "died on day 5; also recorded: died on day 6"}, {"measurement": "Whole Blood Clotting Time", "setting": "[1]; sixth day of feeding, two analyses per sample", "value": "> 600", "unit": "s"}]}
{"smiles": "On1c(C(F)(F)F)nc2ncc(Cl)cc21", "note": "[1-hydroxy-6-chloro-2-trifluoromethyl-1H-imidazo(4,5-b)pyridine]", "values": [{"measurement": "Coagulation Factor, PTC (IX)", "setting": "PTC (IX)", "value": "45 % of Control and 66 % of Control"}, {"measurement": "Coagulation Factor, Prothrombin (II)", "setting": "Prothrombin (II)", "value": "70 % of Control"}, {"measurement": "Coagulation Factor, AHG (VIII)", "setting": "AHG (VIII)", "value": "94 % of Control and 100 % of Control"}, {"measurement": "Coagulation Factor, Hageman Factor (XII)", "setting": "Hageman Factor (XII)", "value": "37 % of Control and 18 % of Control"}, {"measurement": "Activated Partial Thromboplastin Time", "setting": "[2]", "value": "22.9 s and 16.0 s"}, {"measurement": "Fibrinogen Levels", "setting": "[2]", "value": "223 mg% and 218 mg%"}, {"measurement": "Prothrombin Time", "setting": "[2]", "value": "9.9 s and 6.9 s"}, {"measurement": "Thrombin Clotting Time", "setting": "[2]", "value": "12.2 s and 12.0 s"}, {"measurement": "Coagulation Factor, PTA (XI)", "setting": "PTA (XI)", "value": "128 % of Control and 140 % of Control"}, {"measurement": "Coagulation Factor, Proconvertin (VII)", "setting": "Proconvertin (VII)", "value": "11 % of Control and 20 % of Control"}, {"measurement": "Coagulation Factor, Ac Globulin (V)", "setting": "Ac Globulin (V)", "value": "100 % of Control"}, {"measurement": "Coagulation Factor, Stuart Factor (X)", "setting": "Stuart Factor (X)", "value": "11 % of Control and 25 % of Control"}]}
{"smiles": "COn1c(C(F)(F)C(F)(F)C(F)(F)F)nc2nc(Cl)c(Cl)cc21", "note": "[1-methoxy-5,6-dichloro-2-heptafluoro-n-propyl-1H-imidazo(4,5-b)pyridine]", "values": [{"measurement": "Bait shyness", "setting": "[3]", "value": "no bait shyness"}, {"measurement": "Eradication of rodents from the trial area", "setting": "[3]", "value": "essentially complete eradication of rodents from the trial area"}, {"measurement": "First day rat corpses were found", "setting": "[3]", "value": 4, "unit": "days"}, {"measurement": "Necropsy of corpses", "setting": "[3]; 31 of 40 corpses necropsied", "value": "uniformly showed internal hemorrhage, generally of the intestines"}, {"measurement": "Corpses found", "setting": "[3]; total", "value": 40, "unit": "corpses"}]}
{"smiles": "COn1c(C(F)(F)F)nc2ncc(Cl)cc21", "note": "[1-methoxy-6-chloro-2-trifluoromethyl-1H-imidazo(4,5-b)pyridine]", "values": [{"measurement": "Coagulation Factor, PTC (IX)", "setting": "PTC (IX)", "value": "26 % of Control and 35 % of Control"}, {"measurement": "Coagulation Factor, Prothrombin (II)", "setting": "Prothrombin (II)", "value": "39 % of Control"}, {"measurement": "Coagulation Factor, AHG (VIII)", "setting": "AHG (VIII)", "value": "124 % of Control and 122 % of Control"}, {"measurement": "Deaths", "setting": "prothrombin time; 0.02 percent in diet", "value": "none"}, {"measurement": "Range of Prothrombin Time", "setting": "prothrombin time; 0.02 percent in diet", "value": "19.5 to 27.5", "unit": "s"}, {"measurement": "Deaths", "setting": "prothrombin time; 0.08 percent in diet", "value": "none"}, {"measurement": "Range of Prothrombin Time", "setting": "prothrombin time; 0.08 percent in diet", "value": "50.1 to 109.1", "unit": "s"}, {"measurement": "Coagulation Factor, Hageman Factor (XII)", "setting": "Hageman Factor (XII)", "value": "25 % of Control and 43 % of Control"}, {"measurement": "Activated Partial Thromboplastin Time", "setting": "[2]", "value": "18.9 s and 26.2 s"}, {"measurement": "Fibrinogen Levels", "setting": "[2]", "value": "236 mg% and 222 mg%"}, {"measurement": "Prothrombin Time", "setting": "[2]", "value": "12.2 s and 12.9 s"}, {"measurement": "Thrombin Clotting Time", "setting": "[2]", "value": "10.5 s and 13.9 s"}, {"measurement": "Prolongation of activated partial thromboplastin time (in words)", "setting": "[2]; dogs, 40 mg./kg. oral x 3 days", "value": "prolongs activated partial thromboplastin time"}, {"measurement": "Coagulation Factor, PTA (XI)", "setting": "PTA (XI)", "value": "224 % of Control and 200 % of Control"}, {"measurement": "Coagulation Factor, Proconvertin (VII)", "setting": "Proconvertin (VII)", "value": "9 % of Control and 14 % of Control"}, {"measurement": "Coagulation Factor, Ac Globulin (V)", "setting": "Ac Globulin (V)", "value": "100 % of Control"}, {"measurement": "Coagulation Factor, Stuart Factor (X)", "setting": "Stuart Factor (X)", "value": "4 % of Control and 6 % of Control"}]}
